This is an account of results in ChEMBL document CHEMBL2390831, “Steviol glycosides: chemical diversity, metabolism, and function” (J Nat Prod, 2013).

The nature of this test: Antioxidant activity assessed as hydroxyl radical scavenging activity. The test is classed as functional.

Molecules are shown by their SMILES.

The term IC50 denotes the concentration that gives 50% inhibition. `O=c1c(O)c(-c2ccc(O)c(O)c2)oc2cc(O)cc(O)c12` [QUERCETIN]: the IC50 was determined as 110 µM. The same measure for `C=C1C[C@@]23CC[C@H]4[C@@](C)(CCC[C@@]4(C)C(=O)O[C@@H]4O[C@H](CO)[C@@H](O)[C@H](O)[C@H]4O)[C@@H]2CC[C@]1(O[C@@H]1O[C@H](CO)[C@@H](O)[C@H](O)[C@H]1O[C@@H]1O[C@H](CO)[C@@H](O)[C@H](O)[C@H]1O)C3` [STEVIOSIDE]: 1500 µM.
